Consider 15 compounds from patent publication US9108944B2, “Androgen receptor modulators and uses thereof” (ARAGON PHARMACEUTICALS, INC., priority 2010, dated 2015).

Test [1] has as its target T1, AR-VP16 (Homo sapiens, UniProt P10275).
T1 sequence (P10275 560-920 limits assumed): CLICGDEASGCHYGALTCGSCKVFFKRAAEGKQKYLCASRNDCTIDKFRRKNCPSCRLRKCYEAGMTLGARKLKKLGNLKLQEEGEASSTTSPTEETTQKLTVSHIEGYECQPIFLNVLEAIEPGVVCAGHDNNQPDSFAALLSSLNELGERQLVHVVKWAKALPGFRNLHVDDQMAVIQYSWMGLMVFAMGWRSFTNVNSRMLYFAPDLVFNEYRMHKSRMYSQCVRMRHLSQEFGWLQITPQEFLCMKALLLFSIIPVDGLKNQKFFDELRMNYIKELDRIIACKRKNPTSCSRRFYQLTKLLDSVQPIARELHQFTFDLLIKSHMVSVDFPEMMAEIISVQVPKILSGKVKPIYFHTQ
Nature of the test: AR-VP16 DNA Binding Assay, antagonist mode (HepG2 cells, 0.1 nM R1881). The format is cell-based. In a few lines:
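HepG2 cells transiently transfected with AR-VP16 (Lipofectin), incubated overnight, then treated with compound in RPMI with charcoal-stripped serum. Antagonist mode adds R1881 at 0.1 nM final. Cells lysed after 48 h incubation for read-out.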

Test [2] addresses T1, AR-VP16. Briefly: AR-VP16 DNA Binding Assay, agonist mode (HepG2 cells). The format is cell-based. Particulars: Emax >20x DMSO control = agonist.

A value given as a limit tells only on which side of the number the result lay.

For the compound `N#Cc1ncc(N2C(=O)C3(CCC3)N(c3ccc(C(=O)NCCCN4CCCC4)c(F)c3)C2=S)cc1C(F)(F)F` [Compound 237, 4-(7-(6-Cyano-5-(trifluoromethyl)pyridin-3-yl)-8-oxo-6-thioxo-5,7-diazaspiro[3.4]octan-5-yl)-2-fluoro-N-(3-(pyrrolidin-1-yl)propyl)benzamide], the IC50 – broadly, the concentration that inhibits the measured activity by half – at AR-VP16 [1] was less than 1000 nM. Besides, the “ARVP16 DNA Binding Assay (Agonist mode): Agonist?” value (shortened to “ARVP16 DNA Binding Assay”) on AR-VP16 [2] is listed as “No (Agonist defined as a compound whose Emax in the ARVP16 DNA Binding Assay (Agonist mode) is >20x DMSO control)”.
The corresponding values for `N#Cc1ncc(N2C(=O)C3(CCC3)N(c3ccc(F)c(C(=O)O)c3)C2=S)cc1C(F)(F)F` [Compound 226, 5-(7-(6-Cyano-5-(trifluoromethyl)pyridin-3-yl)-8-oxo-6-thioxo-5,7-diazaspiro[3.4]octan-5-yl)-2-fluorobenzoic acid] are greater than 1000 nM and “No (Agonist defined as a compound whose Emax in the ARVP16 DNA Binding Assay (Agonist mode) is >20x DMSO control)”.
For `CNC(=O)c1ccc(N2C(=S)N(c3cnc(C#N)c(C(F)F)c3)C(=O)C23CCC3)cc1F` [Compound 113, 4-(7-(6-Cyano-5-(difluoromethyl)pyridin-3-yl)-8-oxo-6-thioxo-5,7-diazaspiro[3.4]octan-5-yl)-2-fluoro-N-methylbenzamide] the same measures were less than 1000 nM and “No (Agonist defined as a compound whose Emax in the ARVP16 DNA Binding Assay (Agonist mode) is >20x DMSO control)”.
The corresponding values for `COCCCNC(=O)c1ccc(N2C(=S)N(c3cnc(C#N)c(C(F)(F)F)c3)C(=O)C23CCC3)cc1F` [Compound 249, 4-(7-(6-Cyano-5-(trifluoromethyl)pyridin-3-yl)-8-oxo-6-thioxo-5,7-diazaspiro[3.4]octan-5-yl)-2-fluoro-N-(3-methoxypropyl)benzamide] are less than 1000 nM and “No (Agonist defined as a compound whose Emax in the ARVP16 DNA Binding Assay (Agonist mode) is >20x DMSO control)”.
Take `Cc1cc(N2C(=O)C3(CCC3)N(c3ccc(OCCN4CCN(C)CC4)cc3)C2=S)cnc1C#N` [Compound 200, 3-Methyl-5-(5-(4-(2-(4-methylpiperazin-1-yl)ethoxy)phenyl)-8-oxo-6-thioxo-5,7-diazaspiro[3.4]octan-7-yl)picolinonitrile]: at AR-VP16 [1], the IC50 is less than 1000 nM. Also, the “ARVP16 DNA Binding Assay” value at AR-VP16 [2] is “Yes (Agonist defined as a compound whose Emax in the ARVP16 DNA Binding Assay (Agonist mode) is >20x DMSO control)”.
For `Cc1cc(N2C(=O)C3(CCC3)N(c3ccc(OC4CCN(C)CC4)cc3)C2=S)cnc1C#N` [Compound 191, 3-Methyl-5-(5-(4-((1-methylpiperidin-4-yl)oxy)phenyl)-8-oxo-6-thioxo-5,7-diazaspiro[3.4]octan-7-yl)picolinonitrile] the same measures were greater than 1000 nM and “No (Agonist defined as a compound whose Emax in the ARVP16 DNA Binding Assay (Agonist mode) is >20x DMSO control)”.
The corresponding values for `COc1ccc(N2C(=S)N(c3cnc(C#N)c(C)c3)C(=O)C23CCC3)cc1` [Compound 205, 5-(5-(4-Methoxyphenyl)-8-oxo-6-thioxo-5,7-diazaspiro[3.4]octan-7-yl)-3-methylpicolinonitrile] are less than 1000 nM and “No (Agonist defined as a compound whose Emax in the ARVP16 DNA Binding Assay (Agonist mode) is >20x DMSO control)”.
For `N#Cc1ncc(N2C(=O)C3(CCC3)N(c3ccc(F)c(OCCN4CCOCC4)c3)C2=S)cc1C(F)(F)F` [Compound 164, 5-(5-(4-Fluoro-3-(2-morpholinoethoxy)phenyl)-8-oxo-6-thioxo-5,7-diazaspiro[3.4]octan-7-yl)-3-(trifluoromethyl)picolinonitrile] the same measures were greater than 1000 nM and “No (Agonist defined as a compound whose Emax in the ARVP16 DNA Binding Assay (Agonist mode) is >20x DMSO control)”.
Turning to `N#Cc1ncc(N2C(=O)C3(CCC3)N(c3ccc(C(=O)Nc4ccccc4)c(F)c3)C2=S)cc1C(F)(F)F` [Compound 255, 4-(7-(6-Cyano-5-(trifluoromethyl)pyridin-3-yl)-8-oxo-6-thioxo-5,7-diazaspiro[3.4]octan-5-yl)-2-fluoro-N-phenylbenzamide], the IC50 at AR-VP16 [1] is less than 1000 nM. The “ARVP16 DNA Binding Assay” value on AR-VP16 [2] was “No (Agonist defined as a compound whose Emax in the ARVP16 DNA Binding Assay (Agonist mode) is >20x DMSO control)”.
The corresponding values for `CNC(=O)c1ccc(N2C(=S)N(c3cnc(C#N)c(C(F)(F)F)c3)C(=O)C23CCC3)c(F)c1` [Compound 89, 4-(7-(6-Cyano-5-(trifluoromethyl)pyridin-3-yl)-8-oxo-6-thioxo-5,7-diazaspiro[3.4]octan-5-yl)-3-fluoro-N-methylbenzamide] are less than 1000 nM and “No (Agonist defined as a compound whose Emax in the ARVP16 DNA Binding Assay (Agonist mode) is >20x DMSO control)”.
`Cc1cc(N2C(=O)C(C)(C)N(c3ccc(OC4CCN(C)CC4)cc3)C2=S)cnc1C#N` [Compound 197, 5-(4,4-Dimethyl-3-(4-((1-methylpiperidin-4-yl)oxy)phenyl)-5-oxo-2-thioxoimidazolidin-1-yl)-3-methylpicolinonitrile]: at AR-VP16 [1], the IC50 is greater than 1000 nM. Further, the “ARVP16 DNA Binding Assay” value at AR-VP16 [2] was “No (Agonist defined as a compound whose Emax in the ARVP16 DNA Binding Assay (Agonist mode) is >20x DMSO control)”.
The corresponding values for `Cc1cc(N2C(=O)C3(CCC3)N(c3ccc(C(=O)Nc4cncc(F)c4)c(F)c3)C2=S)cnc1C#N` [Compound 305, 4-(7-(6-Cyano-5-methylpyridin-3-yl)-8-oxo-6-thioxo-5,7-diazaspiro[3.4]octan-5-yl)-2-fluoro-N-(5-fluoropyridin-3-yl)benzamide] are less than 1000 nM and “No (Agonist defined as a compound whose Emax in the ARVP16 DNA Binding Assay (Agonist mode) is >20x DMSO control)”.
The corresponding values for `CCOC(=O)CCCNC(=O)c1ccc(N2C(=S)N(c3cnc(C#N)c(C(F)(F)F)c3)C(=O)C23CCC3)cc1F` [Compound 247, Ethyl 4-(4-(7-(6-cyano-5-(trifluoromethyl)pyridin-3-yl)-8-oxo-6-thioxo-5,7-diazaspiro[3.4]octan-5-yl)-2-fluorobenzamido)butanoate] are greater than 1000 nM and “No (Agonist defined as a compound whose Emax in the ARVP16 DNA Binding Assay (Agonist mode) is >20x DMSO control)”.
The corresponding values for `N#Cc1ncc(N2C(=O)C3(CCC3)N(c3ccc(OCCN4CCSCC4)c(F)c3)C2=S)cc1C(F)(F)F` [Compound 175, 5-(5-(3-Fluoro-4-(2-thiomorpholinoethoxy)phenyl)-8-oxo-6-thioxo-5,7-diazaspiro[3.4]octan-7-yl)-3-(trifluoromethyl)picolinonitrile] are less than 1000 nM and “No (Agonist defined as a compound whose Emax in the ARVP16 DNA Binding Assay (Agonist mode) is >20x DMSO control)”.
The compound `N#Cc1ncc(N2C(=O)C3(CCC3)N(c3ccc(F)c(C(=O)NCCN4CCCC4)c3)C2=S)cc1C(F)(F)F` [Compound 251, 5-(7-(6-Cyano-5-(trifluoromethyl)pyridin-3-yl)-8-oxo-6-thioxo-5,7-diazaspiro[3.4]octan-5-yl)-2-fluoro-N-(2-(pyrrolidin-1-yl)ethyl)benzamide] registered an IC50 on AR-VP16 [1] greater than 1000 nM. Besides, at AR-VP16 [2], the “ARVP16 DNA Binding Assay” value is “No (Agonist defined as a compound whose Emax in the ARVP16 DNA Binding Assay (Agonist mode) is >20x DMSO control)”.
